Assay results published in ChEMBL document CHEMBL3045440, “Determination of stereoselective interaction between enantiomers of chiral gamma-aryl-1H-1,2,4-triazole derivatives and Penicillium digitatum” (J Agric Food Chem, 2009).
Values after ≈ are worked out from the molar mass of the structure shown.

Assays:
[1] = tested on: Penicillium digitatum; assay: Fungicidal activity against Penicillium digitatum at 26 degC after 48 hr by growth inhibition test; format: functional, organism-based
[2] = tested on: Penicillium digitatum; assay: Fungicidal activity against Penicillium digitatum at 50 mg/l at 26 degC after 48 hr by growth inhibition test; format: functional; details: read-out: GI
[3] = molecular target: T1, Cytochrome P450 14alpha-demethylase (Penicillium digitatum, UniProt A1XG20); assay: Binding affinity to Penicillium digitatum CYP51 expressed in Escherichia coli BL21 (DE3) cells by binding spectrum method
T1 sequence (A1XG20 whole entry): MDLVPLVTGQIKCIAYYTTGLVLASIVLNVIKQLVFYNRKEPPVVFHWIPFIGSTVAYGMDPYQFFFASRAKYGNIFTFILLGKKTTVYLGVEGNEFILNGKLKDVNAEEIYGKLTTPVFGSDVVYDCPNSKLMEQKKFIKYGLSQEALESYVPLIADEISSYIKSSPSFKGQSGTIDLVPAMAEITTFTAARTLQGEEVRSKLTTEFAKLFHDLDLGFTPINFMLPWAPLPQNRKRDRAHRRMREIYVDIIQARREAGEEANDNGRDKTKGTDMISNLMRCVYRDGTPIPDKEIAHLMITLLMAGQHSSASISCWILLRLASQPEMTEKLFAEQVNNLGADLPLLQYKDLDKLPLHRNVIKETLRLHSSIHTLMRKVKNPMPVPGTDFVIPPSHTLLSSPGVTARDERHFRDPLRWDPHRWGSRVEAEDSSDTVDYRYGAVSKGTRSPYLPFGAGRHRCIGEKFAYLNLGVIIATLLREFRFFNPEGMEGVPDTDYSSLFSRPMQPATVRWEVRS

[4] = molecular target: T1, Cytochrome P450 14alpha-demethylase; assay: Binding affinity to Penicillium digitatum CYP51 expressed in Escherichia coli BL21 (DE3) cells assessed as absorption spectral changes with maximum at 420-430 nm and trough at 385-400 nm (type II) by binding spectrum method
[5] = molecular target: T1, Cytochrome P450 14alpha-demethylase; assay: Binding affinity to Penicillium digitatum CYP51 expressed in Escherichia coli BL21 (DE3) cells assessed as absorption spectral changes with maximum at 390 nm and trough at 420 nm (type I) by binding spectrum method
[6] = molecular target: T1, Cytochrome P450 14alpha-demethylase; assay: Binding affinity to Penicillium digitatum CYP51 expressed in Escherichia coli BL21 (DE3) cells assessed as absorption spectral changes with maximum at 420-430 nm and trough at 390-410 nm (type II) by binding spectrum method

Row | SMILES | EC50 [1] | inhibition of growth at 50 µg/mL [2] | Kd ([3]; read-out: Kd) | Activity [4] | Kd ([3]; bl21-de3) | Activity [5] | Activity [6]
1 | CC[C@H](CCn1cncn1)c1ccccc1 | 0.577 µg/mL (≈ 2.68 µM) | 84% | 34 nM | Active |  |  | 
2 | CC[C@@H](CCn1cncn1)c1ccccc1 | 89.6 µg/mL (≈ 416 µM) | 20% | 1660 nM | Active |  |  | 
3 | CC[C@H](CCn1cncn1)c1ccc(F)cc1 |  | 88% | 81 nM | Active |  |  | 
4 | CC[C@@H](CCn1cncn1)c1ccc(F)cc1 |  | 78% | 230 nM | Active |  |  | 
5 | CC[C@H](CCn1cncn1)c1ccc(Cl)cc1 | 0.587 µg/mL (≈ 2.35 µM) | 92% | 150 nM | Active |  |  | 
6 | CC[C@@H](CCn1cncn1)c1ccc(Cl)cc1 | 61.1 µg/mL (≈ 245 µM) | 23% | 1140 nM | Active |  |  | 
7 | CC[C@H](CCn1cncn1)c1ccc(OC)cc1 |  | 89% | 63 nM | Active |  |  | 
8 | CC[C@@H](CCn1cncn1)c1ccc(OC)cc1 |  | 77% | 505 nM | Active |  |  | 
9 | CCC[C@H](CCn1cncn1)c1ccccc1 |  | 90% | 140 nM | Active |  |  | 
10 | CCC[C@@H](CCn1cncn1)c1ccccc1 |  | 79% | 210 nM | Active |  |  | 
11 | CCC[C@H](CCn1cncn1)c1ccc(F)cc1 |  | 89% | 250 nM | Active |  |  | 
12 | CCC[C@@H](CCn1cncn1)c1ccc(F)cc1 |  | 78% |  |  | Not Active |  | 
13 | CCC[C@H](CCn1cncn1)c1ccc(OC)cc1 | 0.603 µg/mL (≈ 2.33 µM) | 90% | 150 nM | Active |  |  | 
14 | CCC[C@@H](CCn1cncn1)c1ccc(OC)cc1 | 138 µg/mL (≈ 534 µM) | < 5% |  |  | Not Active |  | 
15 | CCCC[C@H](CCn1cncn1)c1ccccc1 |  | 73% | 760 nM | Active |  |  | 
16 | CCCC[C@@H](CCn1cncn1)c1ccccc1 |  | 65% |  |  | Not Active |  | 
17 | CCCC[C@H](CCn1cncn1)c1ccc(F)cc1 | 0.88 µg/mL (≈ 3.37 µM) | 100% | 90 nM | Active |  |  | 
18 | CCCC[C@@H](CCn1cncn1)c1ccc(F)cc1 | 1.15 µg/mL (≈ 4.4 µM) | 95% | 150 nM | Active |  |  | 
19 | CCCC[C@H](CCn1cncn1)c1ccc(Cl)cc1 |  | 88% | 350 nM | Active |  |  | 
20 | CCCC[C@@H](CCn1cncn1)c1ccc(Cl)cc1 |  | 83% | 340 nM |  |  | Active | 
21 | CCCC[C@H](CCn1cncn1)c1ccc(OC)cc1 | 0.62 µg/mL (≈ 2.27 µM) | 100% | 49 nM | Active |  |  | 
22 | CCCC[C@@H](CCn1cncn1)c1ccc(OC)cc1 | 0.97 µg/mL (≈ 3.55 µM) | 97% | 180 nM | Active |  |  | 
23 | CCCC[C@H](CCn1cncn1)c1ccc(C)cc1 |  | 93% | 46 nM | Active |  |  | 
24 | CCCC[C@@H](CCn1cncn1)c1ccc(C)cc1 |  | 87% | 1220 nM | Active |  |  | 
25 | CC(C)(C)C(O)/C(=C/c1ccc(Cl)cc1Cl)n1cncn1 (stereo not given) [DINICONAZOLE] | 0.09 µg/mL (≈ 0.276 µM) | 100% |  |  |  |  | 
26 | CC(C)(C)C(O)/C(=C\c1ccc(Cl)cc1Cl)n1cncn1 (stereo not given) [DINICONAZOLE] |  |  | 120 nM |  |  |  | Active
27 | CC(C)(C)C(O)(CCc1ccc(Cl)cc1)Cn1cncn1 (stereo not given) [TEBUCONAZOLE] | 0.37 µg/mL (≈ 1.2 µM) | 100% | 320 nM |  |  | Active | 
28 | CC(C)(C)C(=O)C(Oc1ccc(Cl)cc1)n1cncn1 (stereo not given) [TRIADIMEFON] | 2.27 µg/mL (≈ 7.73 µM) | 100% | 990 nM |  |  |  | Active
29 | CC(C)(C)C(O)C(Oc1ccc(Cl)cc1)n1cncn1 (stereo not given) [TRIADIMENOL] | 1.44 µg/mL (≈ 4.87 µM) | 100% | 640 nM |  |  |  | Active
